Results from patent US11078519B2, “Bioluminescent assays utilising secreted luciferases” (GENE STREAM PTY LTD., priority 2006, dated 2021).
Blank lines part the entries; values can stand above or below the compound they belong to.

Experiments:
[1] = test system: secreted Metridia luciferase; experiment: Kinetic luminescence assay of secreted Metridia luciferase in conditioned medium; format: biochemical; conditions: varying DTT in assay buffer; up to 120 minutes; FIG. 5D
Text: HeLa cells were transiently transfected with expression plasmids encoding either Gaussia or Metridia luciferases in either their native secreted form or a modified non-secreted form. Secreted Metridia luciferase was obtained from Clontech and non-secreted Metridia luciferase was created in an analogous way to non-secreted Gaussia luciferase. The coding region was obtained by PCR using primers that delete the first 16 amino acids after ATG (the secretion signal) and the stop codon. The PCR product was ligated into a pRR23.1 plasmid (GeneStream, AU) to create a non-secreted but destabilized Metridia luciferase. One day after transfection conditioned medium was removed for the secreted luciferases and the non-secreted luciferases were lysed as described in Example 1. Aliquots (20 ul) of conditioned medium or lysate were assayed for luciferase activity in kinetic assays following manual injection of assay buffer comprising the indicated concentrations of DTT in 25 mM Tris pH 7.75; 1 mM EDTA; 2 mM Ascorbic acid and 26 uM coelenterazine.

[2] = test system: wild-type secreted Gaussia luciferase; experiment: Kinetic luminescence assay of secreted Gaussia luciferase in conditioned medium; format: biochemical
Procedure: Similar experiments were performed as described in Example 1 with the exception that the effect of DTT on the time course of luminescence was also investigated for the wild-type secreted Gaussia luciferase. This was achieved by transiently transfecting HeLa cells with a reporter plasmid encoding the wild-type Gaussia luciferase protein and harvesting the conditioned medium 24 hrs later. The assay buffer (with either 50 mM DTT or no DTT) was injected into wells containing 20 ul of the conditioned medium. Results were expressed as the % signal remaining compared to time zero (see FIG. 3).
(§1) HeLa cells were transiently transfected with expression plasmids encoding either Gaussia or Metridia luciferases in either their native secreted form or a modified non-secreted form. Secreted Metridia luciferase was obtained from Clontech and non-secreted Metridia luciferase was created in an analogous way to non-secreted Gaussia luciferase. The coding region was obtained by PCR using primers that delete the first 16 amino acids after ATG (the secretion signal) and the stop codon. The PCR product was ligated into a pRR23.1 plasmid (GeneStream, AU) to create a non-secreted but destabilized Metridia luciferase.
One day after transfection conditioned medium was removed for the secreted luciferases and the non-secreted luciferases were lysed as described in Example 1. […]

[3] = test system: non-secreted Gaussia luciferase; experiment: Kinetic luminescence assay of non-secreted Gaussia luciferase in HeLa cell lysate with reducing agent in assay buffer; format: biochemical; conditions: for decay in luminescent signal over time compared with absence of reducing agent: all concentrations tested: DTT 4-50 mM, β-mercaptoethanol 10-100 mM, TCEP 500 uM or 5 mM, FIGS. 1A, 1B
Procedure: HeLa cells stably expressing non-secreted and destabilized Gaussia luciferase were plated onto 96-well plates and incubated overnight. The non-secreted luciferase is a modified Gaussia luciferase in which the 14 amino acid N-terminal signal peptide has been deleted. The destabilised luciferase is an enzyme containing a destabilising element such that it has a shortened half-life and is expressed at lower steady-state level than in the absence of the destabilising element.
Following the overnight incubation, medium was removed and the cells lysed in 20 ul lysis buffer comprising 25 mM Tris pH 8.1, 150 mM NaBr, 1 mM EDTA, 63.4 uM sodium oxalate, 0.1% NP40 substitute, 5% glycerol (GSv3). Luciferase activity was measured in a kinetic assay following injection of 60 ul of an assay buffer comprising 25 mM Tris pH 8.1; 1 mM EDTA, 2 mM Ascorbate and 26 uM Cz (STD), or the same assay buffer but also containing a reducing agent. Various concentrations of three reducing agents were used: DTT (4 mM, 10 mM, 20 mM or 50 mM); β-mercaptoethanol (10 mM, 20 mM, 50 mM, or 100 mM); and TCEP (500 uM or 5 mM). […] The effect was strongest at higher concentrations of a given reducing agent. […] The inventors have determined that this higher concentration produced beneficial effects in terms of bioluminescence generated by Gaussia luciferase. […]

[4] = biological target: T1, intracellular Renilla luciferase (Renilla reniformis, UniProt P27652); experiment: Kinetic luminescence assay of Renilla luciferase in HeLa cell lysate; format: biochemical; conditions: 50 mM DTT in assay buffer; FIG. 4
T1 construct: expressed in transfected cells; host or cells: HeLa, transient; cell lysate
T1 sequence (P27652 1-311): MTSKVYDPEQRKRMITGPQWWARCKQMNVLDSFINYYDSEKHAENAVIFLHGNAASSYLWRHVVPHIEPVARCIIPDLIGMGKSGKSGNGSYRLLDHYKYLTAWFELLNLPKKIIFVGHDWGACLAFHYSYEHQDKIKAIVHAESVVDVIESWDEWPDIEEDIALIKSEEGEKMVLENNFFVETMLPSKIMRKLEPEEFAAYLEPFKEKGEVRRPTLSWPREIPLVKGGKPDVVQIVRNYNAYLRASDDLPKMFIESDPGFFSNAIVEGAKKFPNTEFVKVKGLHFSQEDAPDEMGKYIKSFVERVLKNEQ
Procedure: Similar experiment to those described in Example 1 were performed, with the exception that the HeLa cells transiently expressed the intracellular Renilla luciferase. A kinetic assay was performed after injection of assay buffer (with 50 mM DTT or no DTT) into wells containing 20 ul of lysate.

[5] = test system: secreted Gaussia luciferase; experiment: Secreted Gaussia luciferase signal in cell lysate, lysis buffer with DTT; format: biochemical; conditions: 50 mM DTT in lysis buffer; 2 hour time-point, without doxycycline; FIG. 11B
Procedure: To test this hypothesis, HeLa cells were co-transfected with plasmids TRE-Rn and CMV-Ga (wild type, secreted), either alone or in combination. The latter provides constitutive expression of secreted Gaussia luciferase, whilst the former provides a doxycycline-repressible expression of intracellular Renilla luciferase. The cells were incubated overnight, the medium was removed and the cells rinsed once before addition of a fresh aliquot of medium either with or without 2 ug/ml doxycyline. At 2, 6 and 24 hrs later, samples of conditioned medium were taken. The cells were rinsed in fresh medium before being lysed using lysis buffer comprising 25 mM Tris pH 8.1, 150 mM NaBr, 1 mM EDTA, 63.4 uM sodium oxalate, 0.1% NP40 substitute, 5% glycerol; either with or without 50 mM DTT. 20 ul aliquots of conditioned medium and cell lysate were then assayed for luciferase activity following addition of 60 ul of assay buffer comprising 25 mM Tris pH 7.75; 1 mM EDTA; 2 mM Ascorbic acid and 26 uM coelenterazine.

[6] = test system: non-secreted and destabilized Gaussia luciferase; experiment: Dual-luciferase assay (Gaussia then firefly) in HeLa cell lysate; format: biochemical; conditions: Gaussia assay buffer with 50 mM DTT; FIG. 8
Procedure: HeLa cells stably expressing both a non-secreted and destabilized Gaussia luciferase and a destabilized firefly luciferase were plated onto 96-well plates and incubated overnight. Medium was removed and the cells lysed in 20 ul of the lysis buffer described in Example 1. Light emission was measured for 1 sec in a luminometer at the following times: immediately before addition of assay buffer (LB=background signal in absence of substrate); immediately after addition of Gaussia assay buffer (Ga) comprising 25 mM Tris pH 8.1; 1 mM EDTA, 2 mM Ascorbate, 23.6 uM Cz and 50 mM DTT; 15 mins after addition of Ga assay buffer (15 mins); and subsequently at 1 sec after addition of 60 ul of a firefly assay buffer (FF) comprising 25 mM Tris pH 7.35, 6 mM MgSO4, 36 mM DTT, 0.11 mM EDTA, 0.58 mM ATP, 0.3 mM CoA, 0.52 mM Luciferin, 1 mg/ml BSA. The results shown in FIG. 8 illustrate a strong Gaussia luciferase bioluminescent signal that can be measured in a flash reaction but which decays to background levels within approximately 15 mins without intervention or the need to add quenching reagents. Subsequent addition of a firefly reagent allows measurement of the firefly signal, thus completing a dual-luciferase assay.

[7] = test system: non-secreted Gaussia luciferase; experiment: Flash intensity of non-secreted Gaussia luciferase in HeLa cell lysate; format: biochemical; conditions: 50 mM DTT in assay buffer; FIG. 12C
Procedure: (§2) Non-transfected HeLa cells and HeLa cells expressing non-secreted Gaussia luciferase were subjected to luciferase assays as follows. Cells were plated in equal aliquots onto a 96-well plate and incubated overnight. Medium was removed and cells lysed in 20 ul of the lysis buffer described in Example 1. Forty minutes later, light emission was measured using a Wallac Victor 3 luminometer (Perkin Elmer) immediately before and after injection of 60 ul of assay buffer comprised 25 mM Tris pH 8.1, 23.6 uM coelenterazine, 1 mM EDTA, 2 mM ascorbate plus the indicated concentration of DTT (see FIG. 8).

[8] = Background luminescent signal in lysate of non-transfected HeLa cells; conditions: DTT in assay buffer
Procedure: as §2

[9] = test system: non-secreted Metridia luciferase; experiment: Kinetic luminescence assay of non-secreted Metridia luciferase in HeLa cell lysate; format: biochemical; conditions: up to 120 minutes
Text: as §1
One day after transfection conditioned medium was removed for the secreted luciferases and the non-secreted luciferases were lysed as described in Example 1. Aliquots (20 ul) of conditioned medium or lysate were assayed for luciferase activity in kinetic assays following manual injection of assay buffer comprising the indicated concentrations of DTT in 25 mM Tris pH 7.75; 1 mM EDTA; 2 mM Ascorbic acid and 26 uM coelenterazine.
Experiments were performed as described in Example 5 for the non-secreted Gaussia and Metridia luciferases, except that the reducing agents used were: dithioerythritol (DTE) (FIGS. 6A and 6D); sodium sulfite (FIG. 6B); cysteamine (FIGS. 6C and 6E); TCEP (FIG. 6F); and β-mercaptoethanol (FIG. 6G).

[10] = test system: destabilised, non-secreted Gaussia luciferase; conditions: fresh assay buffer with glutathione; FIG. 14
Procedure: HeLa cells expressing a destabilised, non-secreted Gaussia luciferase were plated in equal aliquots onto 96-well plates and incubated overnight. The same lysis buffer was used for all samples. […] The assay buffers were then stored at room temperature for 4 hrs and used again to measure replicate samples.

[11] = test system: destabilised, non-secreted Gaussia luciferase; conditions: 5 mM glutathione (3:2 reduced:oxidized); fresh buffer; FIG. 15
Procedure: HeLa cells expressing a destabilised, non-secreted Gaussia luciferase were plated in equal aliquots onto 96-well plates and incubated overnight. The same lysis buffer was used for all samples. Luciferase activity was measured using fresh assay buffer containing the total amounts of glutathione (3:2 ratio of reduced:oxidized) indicated in FIG. 15. The assay buffers were then stored at room temperature for 7 hrs or at 4° C. for 22 hrs and used again to measure replicate samples.

[12] = varying concentrations of reducing agent, up to 50 minutes, FIGS. 6D-6G
[13] = varying concentrations of reducing agent, FIGS. 6A-6C

SMILES: O[C@H](CS)[C@H](O)CS [DTT, dithiothreitol]
light emission over time [1]: very rapid decline in light emission
light emission over time (% signal remaining compared to time zero) ([2]; 50 mM DTT in assay buffer, native secreted form, conditioned medium, FIG. 3): very rapid decline in light emission
light emission over time ([2]; varying DTT in assay buffer, up to 120 minutes, FIG. 5B): very rapid decline in light emission
light emission over time (% signal remaining compared to time zero) ([3]; 50 mM DTT in assay buffer, modified non-secreted form, FIG. 3): very rapid decline in light emission
time for signal to drop to approximately background levels (~100 RLU) ([3]; DTT 50 mM to 500 mM, all concentrations, FIG. 2B): ≤ 10 min
rate of decay in luminescent signal versus concentration ([3]; DTT 50 mM to 500 mM, FIG. 2A): directly related to the concentration of DTT
light emission after addition during glow phase (% of light units at time zero) ([3]; DTT added 40 minutes after initiation of reaction, FIG. 7): rapid decline in light emission
light emission during the first few seconds after injection of the reducing agent ([3]; DTT added during glow phase, FIG. 7): lack of any significant decay in light emission
decay in luminescent signal over time compared with absence of reducing agent [3]: more rapid decay in luminescent signal
initial signal intensity ([3]; up to 50 mM DTT): does not cause any reduction in initial signal intensity
light emission over time ([3]; varying DTT in assay buffer, up to 120 minutes, FIG. 5A): very rapid decline in light emission
kinetics of light emission [4]: prolongs the light emission
signal in the lysate of cells expressing only Gaussia luciferase [5]: no signal was detected
time for Gaussia luciferase signal to decay to background levels [6]: ≤ 15 min
true luciferase signal in flash reactions [7]: does not reduce the true luciferase signal
reduction in the background signal generated by the assay buffer ([8]; after subtraction of the pre-read, FIG. 12B): more than 80%
reduction in the overall background signal ([8]; raw RLU after injection, FIG. 12A): more than 50%
light emission over time ([9]; varying DTT in assay buffer, FIG. 5C): very rapid decline in light emission

SMILES: NCCS [cysteamine]
light emission over time [3, 12]: rapid decline in light emission
light emission over time [9, 13]: rapid decline in light emission

SMILES: O[C@H](CS)[C@@H](O)CS [DTE, dithioerythritol]
light emission over time [3, 12]: rapid decline in light emission
light emission over time [9, 13]: rapid decline in light emission

baseline activity of the fresh buffers [10]: reduces the assay buffer activity
initial activity of assay buffer [11]: initial activity was reduced
SMILES: N[C@@H](CCC(=O)N[C@@H](CS)C(=O)NCC(=O)O)C(=O)O [glutathione]

SMILES: OCCS [β-mercaptoethanol]
decay in luminescent signal over time compared with absence of reducing agent [3]: more rapid decay in luminescent signal
light emission over time [3, 12]: rapid decline in light emission

SMILES: O=S([O-])[O-].[Na+].[Na+] [sodium sulfite]
light emission over time [9, 13]: rapid decline in light emission

SMILES: O=C(O)CCP(CCC(=O)O)CCC(=O)O [TCEP, tris(2-carboxyethyl)phosphine]
decay in luminescent signal over time compared with absence of reducing agent [3]: more rapid decay in luminescent signal
light emission over time [3, 12]: rapid decline in light emission
